Laboratory results as given in US20100287625A1, “VEGF VARIANTS” (UNIVERSITE DE LIEGE, priority 2006, published 2010).

What was measured:
VEGF111 mRNA [1] = test: VEGF111 mRNA in blood cells treated ex vivo, RT-PCR; type: cell-based, human; details: blood cells of a healthy donor, 1 μM, 6 and 24 hours
Experimental: FIG. 8: VEGF111 is expressed in blood cells treated with camptothecin (1 μM) ex vivo. Double arrowhead: internal standard. Vertical arrow indicates amplification products of VEGF111.
Blood was collected from a healthy donor, and cells were collected by centrifugation. Red blood cells were lyzed and the remaining cells were treated or not with camptothecin (1 μM) for 6 and 24 hours. Untreated cells were also investigated directly after collection. Total VEGF mRNA was measured by RT-PCR as described.

VEGF111 mRNA [2] = test: Induction of VEGF111 mRNA by genotoxic agents, RT-PCR; type: cell-based, human
Experimental: The indicated cells were treated with UV-B or camptothecin (30 mJ or 1 μM, respectively, except otherwise indicated) for 24 hours (except otherwise indicated) and VEGF and VEGF111 mRNA were measured by RT-PCR. (A) Polyacrylamide gel electrophoresis of RT-PCR products of VEGF (upper panel), VEGF111 (middle panel) and 28S rRNA (lower panel). Arrows in upper panel show the amplification product of VEGF111. The drawings on the right represent the exons (not to scale) in the corresponding VEGF isoforms. C: control cells; Cp: camptothecin treatment; M: 50 bp molecular weight marqueurs; R: cells rinsed with red phenol-free medium; UV: UV-B irradiation; -: non template control; arrowheads: RT-PCR products of synthetic RNA added to the test tubes to monitor reaction efficiency. (B to E) Dose-response analysis (B and D) and kinetic of induction (C and E) of VEGF111 mRNA level in MCF7 cells irradiated by UV-B (B and C) or treated with camptothecin (D and E). The expression of VEGF111 is expressed as the percentage of the signal corresponding to its mRNA taking the overall various VEGF isoforms mRNA, as measured in upper panel of (A) as 100%.
The RT-PCR amplifications were performed in an automated system (GeneAmp PCR System 2400 or 9600, Perkin Elmer, Norwalk, Conn.) using the GeneAmp Thermostable rTth Reverse Transcriptase RNA PCR kit (Perkin Elmer), 10 ng of total RNA and the different pairs of primers (5 pmole each, see Table 1). For amplification of VEGF isoforms mRNA and 28S rRNA, a known copy number of an internal standard RNA were included in each sample to monitor the efficiency of the reaction. The RT step (70° C., 15 min.) was followed by a 2 min. incubation at 95° C. for denaturation of RNA/DNA heteroduplexes, PCR amplification and final elongation for 2 min. at 72° C. The conditions for PCR amplification were 94° C. for 15 sec., 66° C. for 20 sec., 72° C. for 10 sec. for 28S rRNA and CD31 mRNA, or 94° C. for 20 sec, 66° C. for 30 sec. and 72° C. for one min for VEGF. RT-PCR products were resolved on 10% polyacrylamide gel and analysed using a Fluor-S MultiImager (BioRad) after staining with gelstar dye (FMC BioProducts, Rockland, Me.). Specific detection of VEGF111 isoform mRNA was performed as follow. mRNA was reverse transcribed using oligodT (Eurogentec, Seraing, Belgium) and Superscript II (Invitrogen) as described by the manufacturer. Reverse transcription (42° C., 50 min.) was followed by denaturation of the enzyme at 70° C. for 15 min. VEGF111 cDNA was amplified by PCR using 40 ng cDNA, the oligos P5 and P6 (Table 1) and Taq polymerase (Takara, Shiga, Japan). The conditions for PCR amplification were 94° C. for 15 sec., 70° C. for 20 sec.,72° C. for 10 sec.

CC[C@@]1(O)C(=O)OCc2c1cc1n(c2=O)Cc2cc3ccccc3nc2-1 [Camptothecin]
VEGF111 mRNA in blood cells (VEGF111 mRNA [1]): expressed | expression of VEGF111 (VEGF111 mRNA [2]; 1 μM, HaCat cells and MCF7 cells, by 24 hours, level similar to or higher than after UV-irradiation): induced | time after which VEGF111 induction reached a plateau (VEGF111 mRNA [2]; MCF7 cells, camptothecin): 24 h | time after which VEGF111 induction was already detected (VEGF111 mRNA [2]; MCF7 cells, camptothecin): 6 h | VEGF111 induction, dose-response (VEGF111 mRNA [2]; MCF7 cells, with the concentration of camptothecin): progressively increased
